In patent publication US20230331707A1, “PROGRAMMED CELL NECROSIS INHIBITOR, PREPARATION METHOD THEREFOR, AND USE THEREOF” (Shanghai Institute of Organic Chemistry, Chinese Academy of …, priority 2020, published 2023):
Like-named read-outs stand apart in the source and are kept apart here.

Columns and labels:
FADD−/− Jurkat cells = assay: Inhibition of TNF-induced programmed necrosis of FADD deficient Jurkat cells (Cell Titer-Glo viability); assay type: cell-based
Method in brief: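 FADD-deficient human Jurkat T leukemia cells in log phase were adjusted to 2.5×10^5/mL and plated at 40 μl per well in 384-well plates. Compounds were added, with SM164 (50 nM) where used, for a 1 h pretreatment at 37° C. TNFα (50 ng/mL) was then added, and cells were incubated 14 h at 37° C, 5% CO2. Viability was read as ATP luminescence with Cell Titer-Glo after 30 min at room temperature, with unstimulated DMSO wells set as 100%. EC50 values were calculated in Prism Graphpad.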

[1] = system: MEFs cells expressing RIPK1 S161E mutant; assay: TSZ-induced programmed necrosis in MEFs cells expressing RIPK1 S161E mutant; assay type: cell-based, mouse; settings: 600 nM
Source text: The adopted biological test protocol was: the effect of compounds on programmed necrosis in MEFs cells (mouse embryonic fibroblasts) with RIPK1 S161E mutation.
In order to verify the inhibitory effect of the compound of the present invention on the highly activated RIPK1 kinase at the cellular level, MEFs cells stably expressing RIPK1 S161E (simulating the activation state of RIPK1 after phosphorylation) were selected, TNFα-SM164-zVAD (Caspase inhibitor for inhibiting apoptosis) (TSZ) was used in combination to induce programmed cell necrosis, and cell viability was calculated by detecting chemiluminescence values, thereby obtaining the biological activity of the compound in inhibiting programmed necrosis.
Methods: MEFs cells replenished by RIPK1: WT-RIPK1, S161A-RIPK1 and S161E-RIPK1 were replenished in RIPK1 stable knockout cells respectively. After stable expression and being cultured to logarithmic growth phase, the cells were collected, and centrifuged at 1000 rpm for 5 min. The supernatant was discarded. Cell concentration was adjusted to 5×10^4/mL, and cells were inoculated into 384-well plates with 40 μL per well. Cell culture medium diluted SM164 (100 nM), zVAD (50 μM) and compound, each […], were added to the corresponding wells. After pretreatment at 37° C. for 1 h, 5 μL of cell culture medium diluted TNF (50 ng/mL) was added to each well in the stimulated group and 5 μL of culture medium was added to the control group. […] The unstimulated DMSO control wells (Ctrl) were taken as 100% cell viability. EC50 values of the compounds were calculated using Prism Graphpad statistical software.

[2] = system: phosphorylation of RIPK1 and phosphorylation of downstream protein MLKL; assay: Programmed necrosis pathway signals by western blot in L929 cells; assay type: cell-based, mouse
Protocol: In order to verify whether the compounds of the present invention can inhibit programmed cell necrosis by inhibiting the activity of RIPK1, and to detect the changes in the signal of the programmed necrosis pathway. FADD-deficient Jurkat or L929 cells treated with the compound of the present invention were used, and TNFα was added to induce programmed necrosis. Then the cells were collected and phosphorylation of RIPK1 and oligomerization of MLKL were detected using western blot.
Methods: FADD-deficient Jurkat cells or L929 cells were cultured in vitro. After growing to the logarithmic growth phase, the cells were collected, centrifuged at 1000 rpm for 5 min, the supernatant was discarded, and the cell concentration was adjusted to 1×10^6/mL. In the 12-well cell culture plate, each well was added with 1 ml of cells, and 0.2 μL of DMSO solution with a concentration of 50 mM drug or pure DMSO control, and pretreated for 1 h. 0.5 μL of TNF α (PBS solution) with a concentration of 100 μg/ml was added to each stimulated group. […] The BCA protein quantification kit was used to detect the protein content of each group, and PIPA lysis buffer was used to adjust the protein amount to make the final volume being 100 μL. […] The resulting sample was incubated with ECL luminescent solution and the luminescent signal was detected.

Cn1ncc(C(=O)NCc2ccc(-n3cnc4c(N)ncnc43)cc2)c1Cc1ccccc1 [QY-10-40]
concentration that essentially completely inhibits TNFα-induced programmed necrosis (FADD−/− Jurkat cells; FADD-deficient Jurkat cells): above 1 nM | EC50 (FADD−/− Jurkat cells; FADD−/− Jurkat cells, stimulated with TNFα + SM164, read-out: EC50 (μM) FADD−/− Jurkat cells (human) TNFα + SM164): 60 pM | EC50 (FADD−/− Jurkat cells; Homo sapiens, Jurkat, read-out: EC50 (μM) FADD−/− Jurkat cells (human) TNFα): 1 pM | activity of inhibition of programmed necrosis compared with GSK2982772 (FADD−/− Jurkat cells; human FADD-deficient Jurkat cells, TNFα alone or in combination with SM164): stronger activity | inhibition of programmed necrosis [1]: can significantly inhibit occurrence of programmed necrosis | inhibitory effect on pathway signals compared with GSK2982772 and Nec-1s [2]: far superior to the other two
